Data published in patent US11596639B2, “Substituted indole Mcl-1 inhibitors” (Vanderbilt University, priority 2016, dated 2023).
Where two headings read alike, the source gives them in different places.

How the values were obtained:
[1] = system: H929 human cancer cell lines; test: Cellular viability / proliferation (Cell TiterGlo, 72 h); format: cell-based
Method in brief: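 Cells were seeded at 1,000 cells/well in medium with 10% FBS and dosed 24 h later with a 2-fold serial dilution of compound (top concentration 50 μM, final DMSO <1%).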

Mcl-1 = Mcl-1 (Homo sapiens (Human), UniProt Q07820); test: Fluorescence polarization anisotropy (FPA) competition assay, FITC-Bak or FITC-Bim BH3 peptide; format: binding; settings: read-out: Ki for Inhibition of Mcl-1 by FPA assay
Mcl-1, sequence (Q07820 172-327): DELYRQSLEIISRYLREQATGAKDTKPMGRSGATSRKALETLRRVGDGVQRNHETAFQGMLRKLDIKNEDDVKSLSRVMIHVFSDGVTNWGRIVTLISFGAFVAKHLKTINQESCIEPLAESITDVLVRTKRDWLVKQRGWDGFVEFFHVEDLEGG

[2] = read-out: GI50 on cellular proliferation of H929 human cancer cell lines, H929 cells, 72 h, Cell TiterGlo, 10% FBS
[3] = Homo sapiens, NCI-H929, 72 h, read-out: GI50 on cellular proliferation of H929 human cancer cell lines, H929 cells, 72 h, Cell TiterGlo, 10% FBS

Compound | GI50 [1, 2] | Ki (Mcl-1) | GI50 [1, 3] | GI50 ([1]; H929 cells, 72 h, Cell TiterGlo, 10% FBS, read-out: GI50 on cellular proliferation of H929 human cancer cell lines)
Cc1cc(OCCCc2c3n(c4c(-c5c(C)nn(C)c5C)c(Cl)ccc24)[C@H](C)CN(c2cccc4cc(C(N)=O)n(C)c24)C3=O)cc(C)c1Cl [Example 270, 7-[(4R)-7-chloro-10-[3-(4-chloro-3,5-dimethyl-phenoxy)propyl]-4-methyl-1-oxo-6-(1,3,5-trimethylpyrazol-4-yl)-3,4-dihydropyrazino[1,2-a]indol-2-yl]-1-methyl-indole-2-carboxamide] | 310 nM | 1.1 nM | – | –
Cc1cc(OCCCc2c3n(c4c(-c5c(C)nn(C)c5C)c(Cl)ccc24)[C@H](C)CN(c2cn(C)c4ccc(C(=O)NCc5ccncc5)cc24)C3=O)cc(C)c1Cl [Example 284, 3-[(4R)-7-chloro-10-[3-(4-chloro-3,5-dimethyl-phenoxy)propyl]-4-methyl-1-oxo-6-(1,3,5-trimethylpyrazol-4-yl)-3,4-dihydropyrazino[1,2-a]indol-2-yl]-1-methyl-N-(4-pyridylmethyl)indole-5-carboxamide] | – | 3.6 nM | 1500 nM | –
Cc1cc(OCCCc2c3n(c4c(-c5c(C)nn(C)c5C)c(Cl)ccc24)[C@H](C)CN(c2cccc4cc(C(=O)O)n(Cc5ccccn5)c24)C3=O)cc(C)c1Cl [Example 247, 7-[(4R)-7-chloro-10-[3-(4-chloro-3,5-dimethyl-phenoxy)propyl]-4-methyl-1-oxo-6-(1,3,5-trimethylpyrazol-4-yl)-3,4-dihydropyrazino[1,2-a]indol-2-yl]-1-(2-pyridylmethyl)indole-2-carboxylic acid] | < 200 nM | < 1 nM | – | –
Cc1cc(OCCCc2c3n(c4c(-c5c(C)nn(C)c5C)c(Cl)ccc24)[C@H](C)[C@@H](C)N(c2ccc(C(=O)O)cc2)C3=O)cc(C)c1Cl [Example 142, 4-((3R,4R)-7-chloro-10-(3-(4-chloro-3,5-dimethylphenoxy)propyl)-3,4-dimethyl-1-oxo-6-(1,3,5-trimethyl-1H-pyrazol-4-yl)-3,4-dihydropyrazino[1,2-a]indol-2(1H)-yl)benzoic acid] | – | 3.8 nM | 7400 nM | –
Cc1cc(OCCCc2c3n(c4c(-c5c(C)ncnc5C)c(Cl)ccc24)[C@H](C)CN(c2cn(C)c4cc(C(=O)O)ccc24)C3=O)cc(C)c1Cl [Example 153, 3-[(4R)-7-chloro-10-[3-(4-chloro-3,5-dimethyl-phenoxy)propyl]-6-(4,6-dimethylpyrimidin-5-yl)-4-methyl-1-oxo-3,4-dihydropyrazino[1,2-a]indol-2-yl]-1-methyl-indole-6-carboxylic acid] | – | < 1 nM | 410 nM | –
CC[C@@H]1Cn2c(c(CCCOc3cc(C)c(Cl)c(C)c3)c3ccc(Cl)c(-c4c(C)nn(C)c4C)c32)C(=O)N1c1cccc(C(=O)O)c1 [Example 21, (R)-3-(7-chloro-10-(3-(4-chloro-3,5-dimethylphenoxy)propyl)-3-ethyl-t-oxo-6-(1,3,5-trimethyl-1H-pyrazol-4-yl)-3,4-dihydropyrazino[1,2-a]indol-2(1H)-yl)benzoic acid] | – | 2.3 nM | – | 4900 nM
Cc1cc(OCCCc2c3n(c4c(-c5c(C)nn(C)c5C)c(Cl)ccc24)[C@H](C)CN(c2ccc(C(=O)O)c4ccccc24)C3=O)cc(C)c1Cl [Example 189, (R)-4-(7-Chloro-10-(3-(4-chloro-3,5-dimethylphenoxy)propyl)-4-methyl-1-oxo-6-(1,3,5-trimethyl-1H-pyrazol-4-yl)-3,4-dihydropyrazino[1,2-a]indol-2(1H)-yl)-1-naphthoic acid] | – | 1.2 nM | 920 nM | –
Cc1cc(N2C[C@@H](C)n3c(c(CCCOc4cc(C)c(Cl)c(C)c4)c4ccc(Cl)c(-c5c(C)nn(C)c5C)c43)C2=O)c2c(c1)c(C)c(C(=O)O)n2C [Example 336, (R)-7-(7-Chloro-10-(3-(4-chloro-3,5-dimethylphenoxy)propyl)-4-methyl-1-oxo-6-(1,3,5-trimethyl-1H-pyrazol-4-yl)-3,4-dihydropyrazino[1,2-a]indol-2(1H)-yl)-1,3,5-trimethyl-1H-indole-2-carboxylic acid] | – | < 1 nM | 250 nM | –
Cc1cc(N2C[C@@H](C)n3c(c(CCCOc4cc(C)c(Cl)c(C)c4)c4ccc(Cl)c(-c5c(C)nn(C)c5C)c43)C2=O)c2c(c1)cc(C(=O)O)n2Cc1cccc(C)n1 [Example 457, (R)-7-(7-Chloro-10-(3-(4-chloro-3,5-dimethylphenoxy)propyl)-4-methyl-1-oxo-6-(1,3,5-trimethyl-1H-pyrazol-4-yl)-3,4-dihydropyrazino[1,2-a]indol-2(1H)-yl)-5-methyl-1-((6-methylpyridin-2-yl)methyl)-1H-indole-2-carboxylic acid] | – | < 1 nM | < 200 nM | –
Cc1cc(OCCCc2c3n(c4c(-c5c(C)nn(CC6CCOCC6)c5C)c(Cl)ccc24)[C@H](C)CN(c2cn(C)c4cc(C(=O)O)ccc24)C3=O)cc(C)c1Cl [Example 308, (R)-3-(7-chloro-10-(3-(4-chloro-3,5-dimethylphenoxy)propyl)-6-(3,5-dimethyl-1-((tetrahydro-2H-pyran-4-yl)methyl)-1H-pyrazol-4-yl)-4-methyl-1-oxo-3,4-dihydropyrazino[1,2-a]indol-2(1H)-yl)-1-methyl-1H-indole-6-carboxylic acid] | – | < 1 nM | 410 nM | –
Cc1cc(OCCCc2c3n(c4c(-c5c(C)nn(C)c5C)c(Cl)ccc24)[C@H](C)CN(c2cn(C)c4ccccc24)C3=O)cc(C)c1Cl [Example 288, (R)-7-chloro-10-(3-(4-chloro-3,5-dimethylphenoxy)propyl)-4-methyl-2-(1-methyl-1H-indol-3-yl)-6-(1,3,5-trimethyl-1H-pyrazol-4-yl)-3,4-dihydropyrazino[1,2-a]indol-1(2H)-one] | – | 3 nM | 8400 nM | –
Cc1cc(OCCCc2c3n(c4c(-c5c(C)nn(C)c5C)c(Cl)ccc24)[C@H](C)CN(c2nn(C)c4ccc(C(=O)O)cc24)C3=O)cc(C)c1Cl [Example 163, (R)-3-(7-Chloro-10-(3-(4-chloro-3,5-dimethylphenoxy)propyl)-4-methyl-1-oxo-6-(1,3,5-trimethyl-1H-pyrazol-4-yl)-3,4-dihydropyrazino[1,2-a]indol-2(1H)-yl)-1-methyl-1H-indazole-5-carboxylic acid] | – | < 1 nM | 260 nM | –
Cc1cc(OCCCc2c3n(c4c(-c5c(C)nn(C)c5C)c(Cl)ccc24)[C@H](C)CN(c2cc(Cl)cc4c(C(=O)O)cn(C)c24)C3=O)cc(C)c1Cl [Example 449, (R)-5Chloro-7-(7-chloro-10-(3-(4-chloro-3,5-dimethylphenoxy)propyl)-4-methyl-1-oxo-6-(1,3,5-trimethyl-1H-pyrazol-4-yl)-3,4-dihydropyrazino[1,2-a]indol-2(1H)-yl)-1-methyl-1H-indole-3-carboxylic acid] | – | 2.6 nM | 1200 nM | –
Cc1cc(OCCCc2c3n(c4c(-c5c(C)nn(C)c5C)c(Cl)ccc24)[C@H](C)CN(c2cccc4cc(C(=O)O)n(CC5(C)COC5)c24)C3=O)cc(C)c1Cl [Example 380, (R)-7-(7-chloro-10-(3-(4-chloro-3,5-dimethylphenoxy)propyl)-4-methyl-1-oxo-6-(1,3,5-trimethyl-1H-pyrazol-4-yl)-3,4-dihydropyrazino[1,2-a]indol-2(1H)-yl)-1-((3-methyloxetan-3-yl)methyl)-1H-indole-2-carboxylic acid] | – | 7.9 nM | 2500 nM | –
